Assay results published in patent US5498632A, “Esters of acyl carnitines with long-chain aliphatic alcohols and pharmaceutical compositions containing same having antibacterial activity” (Sigma-Tau Industrie Farmaceutiche Riunite S.p.A., priority 1992, dated 1996).

How the values were obtained:
[1] = tested on: peritoneal macrophage; assay: Test 4: peritoneal macrophage number in mice; assay type: in vivo, mouse (male B6 D2 F1); details: 100 mg/kg/day for 5 consecutive days, oral
Experimental: Evaluation of the effect of repeated oral administrations of ST 722 on the peritoneal macrophage number in mice.
Male B6 D2 F1 mice (C. River) aged 10 weeks (6 animals each group) were orally treated with the substance ST 722 at the dose of 100 mg/kg/day for 5 consecutive days. Twenty-four hours after the last administration, the animals were sacrificed, the peritoneal exudate cells (PEC) collected and the macrophage number determined.

[2] = tested on: Helicobacter pylori NCTC 11637; assay: In vitro synergistic effect of ST 722 and Bismuth Subcitrate; assay type: cell-based
Experimental: CBS from the commercially available product De-Nol® (Gist-Brocades, Netherland), i.e. ammonium and potassium double salt of colloidal bismuth citrate hydroxide, was utilized by preparing a suspension of 10 mg/ml CBS in 1N NaOH. After diluting 1:10 in Mueller-Hinton broth, 8 serial two-fold dlitutions in the same medium were made. The compound ST 722 was dissolved in Mueller-Hinton broth at a starting concentration of 100 mcg/ml, then 7 serial two-fold dilutions were carried out.
The "in vitro" anti-Helicobacter activity of both CBS and ST 722, alone and in association, was tested by utilizing the strain H. pylori NCTC 11637.
A 24-hour culture of Helicobacter in Columbia agar medium supplemented with Vitox (Oxoid) and 7% defribinated horse blood is washed with Mueller-Hinton broth.
Following densitometric evaluation (reading at 600 nm), the bacterial suspension was adjusted to a concentration of 1.0×10^9 cells/ml and 0.2-ml volumes were distributed into each well of a 96-well U-bottomed microtiter plate.
A 1-μl volume of this bacterial suspension was then distributed, by means of a Steers-type replicator apparatus, into the wells of microtiter plates containing the substances, either alone or in association. The final bacterial inoculum contained approximately 1.0×10^6 bacterial cells.
The procedure described by Garrod et al. (GARROD, L. P. and WATERWORTH, P. M., 1962. Methods of testing combined antibiotic bactericidal action and the significance of the results. J. Clin. Pathol. 15, 328-338) was utilized.
Briefly, 250-μl volumes of each test substance, either alone or admixed in all the possible combinations, were additioned to 4.5 ml of Mueller-Hinton agar containing 5% defribinated horse serum. Volumes of 0.2 ml/well of the resulting solution were distributed into the wells of a microtiter plate, then seeded with 1 μl/well of a standardized bacterial suspension, and finally incubated for 48 hours at 37° C. in a 10% CO2 atmosphere.
In order to evaluate the results obtained with combinations of antibiotics it was utilized the method (KROGSTAD, D. J. and MOELLERING, R. C., 1983. Antimicrobial combinations. In LORIAN, V., Antibiotics in Laboratory Medicine, 15, 537-549) based on the calculation of the Fractional Inhibitory Concentration Index (FIC index).
FIC index is calculated as follows: [formula] Where (A) is the MIC of substance A in the association and (MICA) is the […] of the organism to substance A alone. FICA is the fractional inhibitory concentration of substance A. (B), (MICB) and FICB are defined in the same fashion for substance B.
Based on these criteria, the effect of a combination of 2 substances is referred to as 'synergistic" when the FIC index is ≤0.5, "additive" with a FIC index=1, and "antagonist" when FIC index is >1.

[3] = tested on: antibody-producer B lymphocytes (spleen of SRBC immunized mice); assay: Test 1: primary antibody production (Jerne test) in spleen of SRBC immunized mice; assay type: in vivo, mouse (male B6 D2 F1)
Experimental: Evaluation of the "in vitro-ex vivo" effect of repeated oral administrations of ST 722 on the primary antibody production (Jerne test) in the spleen of SRBC (Sheep Red Blood Cells) immunized mice.
Male B6 D2 F1 mice (C. River) aged 8 weeks (6 animals each group) were utilized.
The substance (ST 722) was administered per os at the dose of 100 mg/kg/day from day -2 through day +2 (immunization at day 0).
The animals were immunized by intraperitoneal route with a concentration of 1.0×10^8 cells/mouse in 0.2 ml of sterile saline.
Five days later, spleens to be submitted to teasing process were removed from the animals sacrificed by cervical dislocation.
After standardization at 1.0×10^7 cells/ml, the splenocytes (0.1 ml) were mixed with warm agar-Hank's (2 ml) and 10% SRBC in PBS (0.2 ml) and seeded in Petri dishes (samples tested in triplicates) and incubated at 37° C. for 60 min.
After addition of complement (2 ml of guinea pig serum diluted 1:10 in Tris buffer), samples were further incubated at 37° C. for 30 min.
To block the haemolysis reaction, the Petri dishes were cooled at 4° C. and the haemolysis plaques were counted.
The antibody response to SRBC is expressed as number of plaque forming cells (PFC) per 1.0×10^6 splenocytes as well as per spleen.

[4] = tested on: Gram+ bacterial strains; assay: Mean MIC in broth and resistant strain number, Gram+ strains; assay type: cell-based; details: 18 h, versus susceptible strains
Experimental: Evaluation of the Minimal Inhibitory Concentration (MIC) in broth of 15 new substances for Gram+ bacterial strains.
The following strains were used: Staphylococcus aureus (4); Streptococcus faecalis (8); Bacillus pumilus (1); Bacillus subtilis (1).
MICs were determined by a standard microdilution test, using serial two-fold dilutions of the substances in Mueller-Hinton broth.
The inoculum was prepared from an overnight culture in Mueller-Hinton broth matching the 0.5 Mc Farland (turbidity) standard (BRAY W. E., Clinical Laboratory Methods, 5th Ed. C. V. MOSBY, St. Louis, Mo. 1957), and was adjusted to a final concentration of 5.0×10^4 colony-forming units/ml.
Equal volumes (0.1 ml) of both bacterial suspensions and substance solutions were distributed in microtiter plates (Falcon, 96 wells, round bottom), and then placed in a humidified incubator (37° C.) for 18 hours.
The results, in terms of MIC values, resistant strain number and mean MIC values versus susceptible strains, are illustrated in Tables 1-6.

[5] = 100 mg/kg/day per os, day -2 through day +2, mean ± S.E.

For `CCCCCCCCCCCOC(=O)CC(C[N+](C)(C)C)OC(=O)CC(C)C` [ST 722, Isovaleryl-L-Carnitine Undecyl Ester Chloride], the Body weight [1] was 28.13 ± 1.30 g, the “increase in the peritoneal macrophages number” value [1] was “about 60%” and the “toxic effect in PEC macrophage population” value [1] was “No toxic effect has been observed”. For the same molecule, the “PEC M.phi.” value ([1]; 6 pooled samples) was 63%, the MIC ([2]; Helicobacter pylori, NCTC11637, substance alone, H. pylori NCTC 11637, 48 hours, read-out: MIC) was 1.56 µg/mL and the “FIC (fractional inhibitory concentration)” value ([2]; ST 722 with CBS) was 0.12. The “toxic effect on weight of the lymphoid organs (spleen and thymus)” value ([3]; 100 mg/kg/day per os) was “did not show values relating to a toxic effect”, the Body weight [3, 5] was 25.12 g and the “PFC/10^6 cells” value [3, 5] was 261 ± 34 PFC/10^6 cells. For the same molecule, the PFC/spleen [3, 5] was 44440 PFC/spleen, the Spleen weight [3, 5] was 94.33 mg and the Thymus weight [3, 5] was 59.50 mg. For the same molecule, the “modification in PFC number after the antigenic challenge” value ([3]; repeated (5 consecutive days) oral administrations) was “did not cause a statistically significant modification in PFC number” and the MIC [4] was 3.12 µg/mL.
